Experimental data: patent US20170281624A1, “COMBINATION THERAPIES OF ALK INHIBITORS” (Novartis AG, priority 2014, published 2017)

Legend:
[1] = ceritinib trials; cited from earlier work
ALK-positive NSCLC = experiment: Clinical study of LDK378 in ALK-positive NSCLC patients, 750 mg dose group; format: in vivo, human
[2] = test system: PD-L1 (CD274) in H3122 cells; experiment: PD-L1 (CD274) expression by TaqMan real time PCR and flow cytometry; format: cell-based, human
Method: This example evaluates the effects of selected therapeutic agent LDK378 on PD-L1 (CD274) modulation. LDK378 was examined by real time PCR and flow cytometry on PD-L1 levels.
TaqMan RT PCR assays were developed to detect changes of expression levels of PD-L1 (CD274) in cell lines and xenograft tumors. mRNA was isolated from frozen cell pellets or tumor fragments using the Qiagen RNeasy Mini kit. Isolated RNA was frozen at −80° C. RNA quality was checked and RNA was quantified using a 2100 Agilent Bioanalyzer following the protocol for the Agilent RNA 6000 Nano Kit. cDNA was prepared using a High Capacity RNA-to cDNA Kit (Applied Biosystems).
Real-time PCR reactions were carried out in 20 μl total volume, including 10 μl of Universal PCR master mix (Applied Biosystems), 1 μl of human PD-L1 (CD274) probe/primer set (Applied Biosystems), and 8 μl of cDNA. Each sample was run in triplicate. The amount of cDNA produced from 25-50 ng of RNA in the reverse transcription reaction was used in each PCR reaction. Due to difference in mRNA levels between PD-L1 and GAPDH, the two real-time PCR reactions were done in separate tubes using same amount of cDNA. The real-time PCR reaction was run on the C1000 Thermal Cycle (BioRad) with the cycle program as follows: a 10 minute incubation at 95° C. followed by 40 cycles of 95° C. for 15 seconds and 60° C. for 1 minute. […]

Cc1cc(Nc2ncc(Cl)c(Nc3ccccc3S(=O)(=O)C(C)C)n2)c(OC(C)C)cc1C1CCNCC1 [LDK378, 5-chloro-N^2-(2-isopropoxy-5-methyl-4-(piperidin-4-yl)phenyl)-N^4-[2-(propane-2-sulfonyl)-phenyl]-pyrimidine-2,4-diamine]
immune-related adverse events [1]: have not been frequently reported | median progression-free survival (PFS) (ALK-positive NSCLC; 750 mg, 53.3% of the patients censored): 8.21 months | median time to response (ALK-positive NSCLC; 144 patients with confirmed CR or PR, 750 mg): 6.1 weeks | overall response rate (ORR) (ALK-positive NSCLC; 246 ALK-positive NSCLC patients, 750 mg dose group (RD)): 58.5% | ORR (ALK-positive NSCLC; ALK inhibitor-naïve patients): 66.3% | patients who achieved a response within 12 weeks (ALK-positive NSCLC; among the 144 patients with confirmed CR or PR, 750 mg): 86.1% | estimated median duration of response (DOR) (ALK-positive NSCLC; investigator assessment, 750 mg): 9.69 months | ORR (ALK-positive NSCLC; patients treated with a prior ALK inhibitor): 54.6% | PD-L1 mRNA ([2]; H3122 (NSCLC with ALK translocation) in vitro, FIG. 1): Inhibition | PD-L1 levels on tumor cells ([2]; real time PCR and flow cytometry): Significant inhibition
